Experimental data from ChEMBL document CHEMBL1201862, “PubChem BioAssay data set” (2004).
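48-hour exposure; five concentrations; linearly interpolated endpoints. GI50: concentration for 50% inhibition of growth.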 Calls of active or inactive are those of the source. No stated cut-off is given here; in the data, active = GI50 up to about 1.1 µM and inactive = higher.

Key:
Test in all cases: DTP human tumour cell line panel, 48 h
[1] = system: SF-539
[2] = system: COLO 205
[3] = system: DU-145
[4] = system: MDA-MB-231
[5] = system: NCI-H522
[6] = system: UO-31
[7] = system: HCC 2998
[8] = system: OVCAR-8
[9] = system: MDA-MB-435
[10] = system: DLD-1
[11] = system: RXF 393
[12] = system: CAKI-1
[13] = system: SN12C
[14] = system: A549
[15] = system: HCT-116
[16] = system: SF-268
[17] = system: Hs-578T
[18] = system: DMS-114
[19] = system: KM12
[20] = system: Malme-3M
[21] = system: KM-20L2
[22] = system: NCI-H226
[23] = system: SNB-75
[24] = system: LOX IMVI
[25] = system: SNB-19
[26] = system: MDA-N
[27] = system: MOLT-4
[28] = system: SR
[29] = system: HOP-62
[30] = system: OVCAR-4
[31] = system: CCRF-CEM
[32] = system: ACHN
[33] = system: MCF7
[34] = system: U-251
[35] = system: OVCAR-5
[36] = system: HT-29
[37] = system: UACC-257
[38] = system: SNB-78
[39] = system: SF-295
[40] = system: BT-549
[41] = system: SK-MEL-5
[42] = system: T47D
[43] = system: K562
[44] = system: M14
[45] = system: SK-OV-3
[46] = system: OVCAR-3
[47] = system: A498
[48] = system: DMS-273
[49] = system: HCT-15
[50] = system: SK-MEL-2
[51] = system: NCI-H460
[52] = system: HL-60
[53] = system: NCI/ADR-RES
[54] = system: UACC-62
[55] = system: HOP-92
[56] = system: M19-MEL
[57] = system: SK-MEL-28
[58] = system: NCI-H23
[59] = system: EKVX
[60] = system: PC-3
[61] = system: IGROV-1
[62] = system: 786-0
[63] = system: TK-10
[64] = system: RPMI-8226
[65] = system: SW-620
[66] = system: LXFL 529
[67] = system: XF498

What does the source list for `Cc1nc2cc(/N=N/c3c(O)ccc4ccccc34)ccc2[nH]1`?
GI50 [1]: 26.7 µM (inactive); GI50 [2]: 29.5 µM (inactive); GI50 [3]: 36 µM (inactive); GI50 [4]: 27.8 µM (inactive); GI50 [5]: 22.8 µM (inactive); GI50 [6]: 45.1 µM (inactive); GI50 [7]: > 50.5 µM (inactive); GI50 [8]: 27.4 µM (inactive); GI50 [9]: 23.1 µM (inactive); GI50 [10]: 24 µM (inactive); GI50 [11]: > 42.4 µM (inactive); GI50 [12]: 26.6 µM (inactive); GI50 [13]: 36.9 µM (inactive); GI50 [14]: 44.5 µM (inactive); GI50 [15]: 23.3 µM (inactive); GI50 [16]: > 68.5 µM (inactive); GI50 [17]: 28.2 µM (inactive); GI50 [18]: 25.8 µM (inactive); GI50 [19]: 25.4 µM (inactive); GI50 [20]: > 51.2 µM (inactive); GI50 [21]: > 100 µM (inactive); GI50 [22]: > 62.2 µM (inactive); GI50 [23]: > 72.1 µM (inactive); GI50 [24]: 18.5 µM (inactive); GI50 [25]: > 96.4 µM (inactive); GI50 [26]: 17 µM (inactive); GI50 [27]: 21 µM (inactive); GI50 [28]: 24.2 µM (inactive); GI50 [29]: > 64.7 µM (inactive); GI50 [30]: 18.8 µM (inactive); GI50 [31]: 16.1 µM (inactive); GI50 [32]: 32.3 µM (inactive); GI50 [33]: 21.2 µM (inactive); GI50 [34]: 27.3 µM (inactive); GI50 [35]: > 75.5 µM (inactive); GI50 [36]: 40.6 µM (inactive); GI50 [37]: 24.8 µM (inactive); GI50 [38]: 83 µM (inactive); GI50 [39]: 41.1 µM (inactive); GI50 [40]: 27.2 µM (inactive); GI50 [41]: 31.9 µM (inactive); GI50 [42]: 21 µM (inactive); GI50 [43]: 23.9 µM (inactive); GI50 [44]: 38.4 µM (inactive); GI50 [45]: > 100 µM (inactive); GI50 [46]: 25.2 µM (inactive); GI50 [47]: > 55 µM (inactive); GI50 [48]: 19.4 µM (inactive); GI50 [49]: 32.3 µM; GI50 [50]: 42.2 µM (inactive); GI50 [51]: 34.8 µM (inactive); GI50 [52]: 15.1 µM (inactive); GI50 [53]: 24.3 µM (inactive); GI50 [54]: 46.3 µM (inactive); GI50 [55]: 24 µM (inactive); GI50 [56]: 23.2 µM (inactive); GI50 [57]: 98.6 µM (inactive); GI50 [58]: > 62.2 µM (inactive); GI50 [59]: > 49.9 µM (inactive); GI50 [60]: 21 µM (inactive); GI50 [61]: > 45.3 µM (inactive); GI50 [62]: 22 µM (inactive); GI50 [63]: > 76.2 µM (inactive); GI50 [64]: 24.3 µM (inactive); GI50 [65]: 32.4 µM (inactive); GI50 [66]: 19.9 µM (inactive)

For `N#C/C(=C/c1ccc[nH]1)P(=O)(O)O`, which GI50 [1] is on record?
The GI50 was > 100 µM (inactive).

What about the GI50 [2] of the same compound?
Its GI50 is > 100 µM (inactive).

What about the GI50 [5] of the same compound?
The GI50 was > 100 µM (inactive).

What about the GI50 [6] of the same compound?
Its GI50 is > 100 µM (inactive).

And the GI50 [7]?
Its GI50 is > 100 µM (inactive).

And the GI50 [8]?
The GI50 was > 100 µM (inactive).

And the GI50 [67]?
Its GI50 is > 100 µM (inactive).

What about the GI50 [10] of the same compound?
The GI50 was > 100 µM (inactive).

And the GI50 [11]?
The GI50 was > 100 µM (inactive).

What about the GI50 [12] of the same compound?
Its GI50 is > 100 µM (inactive).

And the GI50 [13]?
The GI50 was > 100 µM (inactive).

What about the GI50 [14] of the same compound?
Its GI50 is > 100 µM (inactive).

And the GI50 [15]?
The GI50 was > 100 µM (inactive).

What about the GI50 [16] of the same compound?
Its GI50 is > 100 µM (inactive).

And the GI50 [18]?
The GI50 was > 100 µM (inactive).

And the GI50 [19]?
Its GI50 is > 100 µM (inactive).

What about the GI50 [20] of the same compound?
The GI50 was > 100 µM (inactive).

And the GI50 [21]?
The GI50 was > 100 µM (inactive).

And the GI50 [22]?
The GI50 was > 100 µM (inactive).

And the GI50 [23]?
The GI50 was 80.4 µM (inactive).

What about the GI50 [24] of the same compound?
Its GI50 is > 100 µM (inactive).

And the GI50 [25]?
Its GI50 is > 100 µM (inactive).

What about the GI50 [27] of the same compound?
The GI50 was > 100 µM (inactive).

What about the GI50 [28] of the same compound?
Its GI50 is > 100 µM (inactive).

And the GI50 [29]?
The GI50 was > 100 µM (inactive).

What about the GI50 [30] of the same compound?
Its GI50 is > 100 µM (inactive).

What about the GI50 [31] of the same compound?
Its GI50 is > 100 µM (inactive).

And the GI50 [32]?
Its GI50 is > 100 µM (inactive).

What about the GI50 [34] of the same compound?
Its GI50 is > 100 µM (inactive).

What about the GI50 [35] of the same compound?
The GI50 was > 100 µM (inactive).

And the GI50 [36]?
The GI50 was > 100 µM (inactive).

And the GI50 [37]?
The GI50 was > 100 µM (inactive).

And the GI50 [38]?
Its GI50 is > 100 µM (inactive).

What about the GI50 [39] of the same compound?
Its GI50 is > 100 µM (inactive).

And the GI50 [41]?
Its GI50 is > 100 µM (inactive).

What about the GI50 [43] of the same compound?
Its GI50 is > 100 µM (inactive).

What about the GI50 [44] of the same compound?
Its GI50 is > 100 µM (inactive).

And the GI50 [45]?
The GI50 was > 100 µM (inactive).

And the GI50 [46]?
The GI50 was > 100 µM (inactive).

What about the GI50 [48] of the same compound?
Its GI50 is > 100 µM (inactive).

And the GI50 [49]?
The GI50 was over 100 µM.

What about the GI50 [50] of the same compound?
Its GI50 is > 100 µM (inactive).

What about the GI50 [51] of the same compound?
Its GI50 is > 100 µM (inactive).

And the GI50 [52]?
Its GI50 is > 100 µM (inactive).

What about the GI50 [54] of the same compound?
Its GI50 is > 100 µM (inactive).

What about the GI50 [55] of the same compound?
The GI50 was > 100 µM (inactive).

And the GI50 [56]?
The GI50 was > 100 µM (inactive).

What about the GI50 [57] of the same compound?
The GI50 was > 100 µM (inactive).

And the GI50 [58]?
The GI50 was > 100 µM (inactive).

What about the GI50 [59] of the same compound?
Its GI50 is > 100 µM (inactive).

And the GI50 [62]?
The GI50 was > 100 µM (inactive).

What about the GI50 [63] of the same compound?
Its GI50 is > 100 µM (inactive).

And the GI50 [64]?
The GI50 was > 100 µM (inactive).

What about the GI50 [65] of the same compound?
The GI50 was > 100 µM (inactive).

And the GI50 [66]?
The GI50 was > 100 µM (inactive).
